The structures appear in SMILES notation. Some results are limits rather than exact numbers.

The target in assay [1] is Epidermal growth factor receptor (Homo sapiens, UniProt P00533, L858R/T790M). In words: Inhibition of EGFR L858R/T790M mutant (unknown origin) by mobility shift assay.
In assay [2] the test system is NCI-H1975. Briefly: Antiproliferative activity against human NCI-H1975 cells harboring EGFR L858R/T790M mutant assessed as inhibition of cell growth incubated for 72 hrs under normoxia condition by SRB assay. It counts as functional, cell-based. Particulars: NCI-H1975, 72 h.
The subject of assay [3] is NCI-H1975. Briefly: Antiproliferative activity against human NCI-H1975 cells harboring EGFR L858R/T790M mutant assessed as inhibition of cell growth incubated for 72 hrs under hypoxia condition by SRB assay. The settings on record: NCI-H1975, 72 h. The class given is functional, cell-based. Background: Sulforhodamine B stains cellular protein and so reports cell mass.

Assay [4] in a line: Ratio of IC50 for antiproliferative activity against human NCI-H1975 cells harboring EGFR L858R/T790M mutant under normoxia condition to IC50 for antiproliferative activity against human NCI-H1975 cells harboring EGFR L858R/T790M mutant under hypoxia condition. The class given is functional.
Assay [5] deals with HCC827. In words: Antiproliferative activity against human HCC827 cells harboring EGFR del19 mutant assessed as inhibition of cell growth incubated for 72 hrs under hypoxia condition by SRB assay. The settings on record: HCC827, 72 h. It counts as functional, cell-based.
Assay [6] has as its system HCC827. In words: Antiproliferative activity against human HCC827 cells harboring EGFR del19 mutant assessed as inhibition of cell growth incubated for 72 hrs under normoxia condition by SRB assay. It counts as functional, cell-based. Particulars: HCC827, 72 h.
The target of assay [7] is Epidermal growth factor receptor (Homo sapiens, UniProt P00533). Briefly: Inhibition of wild type EGFR (unknown origin) by mobility shift assay.
Epidermal growth factor receptor (Homo sapiens, UniProt P00533), sequence (P00533 whole entry): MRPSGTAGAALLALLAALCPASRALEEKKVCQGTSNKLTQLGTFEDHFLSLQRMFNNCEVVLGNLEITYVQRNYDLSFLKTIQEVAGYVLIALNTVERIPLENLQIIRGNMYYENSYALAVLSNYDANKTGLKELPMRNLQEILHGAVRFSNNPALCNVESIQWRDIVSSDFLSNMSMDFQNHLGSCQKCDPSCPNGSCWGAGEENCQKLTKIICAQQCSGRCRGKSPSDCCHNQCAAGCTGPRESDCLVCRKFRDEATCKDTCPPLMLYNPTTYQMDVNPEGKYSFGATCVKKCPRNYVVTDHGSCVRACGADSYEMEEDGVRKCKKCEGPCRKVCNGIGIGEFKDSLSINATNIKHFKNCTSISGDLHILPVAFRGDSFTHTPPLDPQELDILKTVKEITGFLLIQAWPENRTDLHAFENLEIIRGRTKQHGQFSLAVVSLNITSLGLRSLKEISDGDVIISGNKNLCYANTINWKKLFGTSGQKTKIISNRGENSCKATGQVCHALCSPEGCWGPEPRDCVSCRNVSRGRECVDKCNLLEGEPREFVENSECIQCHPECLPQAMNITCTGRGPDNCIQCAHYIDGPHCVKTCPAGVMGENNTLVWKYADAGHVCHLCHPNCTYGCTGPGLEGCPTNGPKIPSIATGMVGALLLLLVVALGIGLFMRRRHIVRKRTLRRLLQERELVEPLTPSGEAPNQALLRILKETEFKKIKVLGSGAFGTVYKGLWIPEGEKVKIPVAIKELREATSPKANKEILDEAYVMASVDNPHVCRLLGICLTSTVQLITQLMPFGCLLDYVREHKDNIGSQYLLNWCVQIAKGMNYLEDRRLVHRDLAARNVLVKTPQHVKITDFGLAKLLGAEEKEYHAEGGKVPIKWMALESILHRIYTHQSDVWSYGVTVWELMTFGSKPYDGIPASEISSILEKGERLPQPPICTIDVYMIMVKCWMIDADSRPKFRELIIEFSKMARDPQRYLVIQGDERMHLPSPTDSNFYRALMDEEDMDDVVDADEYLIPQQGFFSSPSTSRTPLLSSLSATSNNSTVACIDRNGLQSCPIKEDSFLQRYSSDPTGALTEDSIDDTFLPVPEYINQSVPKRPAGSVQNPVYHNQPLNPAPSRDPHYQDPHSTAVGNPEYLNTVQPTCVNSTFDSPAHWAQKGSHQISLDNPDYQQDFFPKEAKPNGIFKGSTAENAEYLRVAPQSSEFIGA
Assay [8] is described as follows: Ratio of IC50 for antiproliferative activity against human HCC827 cells harboring EGFR del19 mutant under normoxia condition to IC50 for antiproliferative activity against human HCC827 cells harboring EGFR del19 mutant under hypoxia condition. It counts as functional.
A short description of assay [9]: Selectivity index, ratio of IC50 for inhibition of wild type EGFR (unknown origin) to IC50 for inhibition of EGFR L858R/T790M mutant (unknown origin).

Epidermal growth factor receptor (Homo sapiens, UniProt P00533, L858R/T790M), sequence (P00533 25-1210 T790M/L858R limits assumed): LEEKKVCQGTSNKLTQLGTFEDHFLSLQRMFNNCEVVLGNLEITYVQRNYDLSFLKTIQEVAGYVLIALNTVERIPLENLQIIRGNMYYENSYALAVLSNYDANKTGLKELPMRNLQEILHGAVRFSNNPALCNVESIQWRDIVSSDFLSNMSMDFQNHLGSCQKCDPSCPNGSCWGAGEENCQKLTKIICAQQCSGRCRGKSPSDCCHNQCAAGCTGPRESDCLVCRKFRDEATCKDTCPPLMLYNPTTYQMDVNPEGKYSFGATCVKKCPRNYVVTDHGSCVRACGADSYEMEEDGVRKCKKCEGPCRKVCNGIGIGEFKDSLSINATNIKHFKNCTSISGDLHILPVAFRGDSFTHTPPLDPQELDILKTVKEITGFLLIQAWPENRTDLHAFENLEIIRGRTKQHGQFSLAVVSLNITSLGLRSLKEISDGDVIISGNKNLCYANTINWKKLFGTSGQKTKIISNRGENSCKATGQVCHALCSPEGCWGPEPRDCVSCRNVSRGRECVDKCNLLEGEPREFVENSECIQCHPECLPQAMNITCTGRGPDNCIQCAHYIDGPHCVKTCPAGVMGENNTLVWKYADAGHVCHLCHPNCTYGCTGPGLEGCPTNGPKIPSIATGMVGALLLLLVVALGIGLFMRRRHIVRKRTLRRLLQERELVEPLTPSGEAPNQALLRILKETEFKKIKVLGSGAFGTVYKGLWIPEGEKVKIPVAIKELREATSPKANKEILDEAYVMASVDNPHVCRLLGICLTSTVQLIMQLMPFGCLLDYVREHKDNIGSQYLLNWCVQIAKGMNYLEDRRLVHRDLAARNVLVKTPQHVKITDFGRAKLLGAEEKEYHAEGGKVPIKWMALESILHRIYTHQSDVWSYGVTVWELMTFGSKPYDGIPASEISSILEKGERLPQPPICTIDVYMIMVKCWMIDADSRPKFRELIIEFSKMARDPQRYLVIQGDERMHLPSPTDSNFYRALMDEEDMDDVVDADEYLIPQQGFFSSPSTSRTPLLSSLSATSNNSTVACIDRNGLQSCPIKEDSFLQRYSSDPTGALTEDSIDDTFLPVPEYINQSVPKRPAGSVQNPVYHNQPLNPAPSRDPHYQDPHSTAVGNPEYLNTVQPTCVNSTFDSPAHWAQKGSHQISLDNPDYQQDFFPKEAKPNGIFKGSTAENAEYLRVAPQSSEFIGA

Take `Cc1ccc(OCCOCCn2ccnc2[N+](=O)[O-])cc1Nc1nccc(-c2cn(C)c3ccccc23)n1`: in assay [1], the half-inhibitory concentration (IC50) was determined as 1310 nM.
Turning to `Cn1cc(-c2ccnc(Nc3cc(OCCOCCn4ccnc4[N+](=O)[O-])ccc3F)n2)c2ccccc21`, the IC50 in the assay on NCI-H1975 [2] was found to be 31 nM; in the assay on NCI-H1975 [3], 7.59 nM; with HCC827 [5], 6.28 nM; in the assay with HCC827 [6] it was 32.1 nM; in [7] it was 7660 nM; in assay [1], 199 nM. Besides, the “Ratio IC50” value in assay [4] is 4.08; in [8], 5.11.
Turning to `CC(=O)c1ccc(Nc2nccc(-c3cn(C)c4ccccc34)n2)cc1OCCOCCn1ccnc1[N+](=O)[O-]`, the Ratio IC50 in [9] was 28.4. Also, the IC50 in assay [7] turned out to be 7440 nM; in assay [1], 262 nM.
Consider `Cn1cc(-c2ccnc(Nc3cccc(OCCOCCn4ccnc4[N+](=O)[O-])c3)n2)c2ccccc21`, for which the Ratio IC50 in assay [9] turned out to be 9.05. For the same molecule, the values for the IC50 in assay [7] and in assay [1] were 4000 nM and 442 nM, respectively.
With `Cn1cc(-c2ccnc(Nc3ccc(OCCOCCn4ccnc4[N+](=O)[O-])cc3)n2)c2ccccc21`, the Ratio IC50 in assay [9] is 18.3. Also, the IC50 in assay [7] was 9370 nM; in [1], 512 nM.
In the case of `Cn1cc(-c2ccnc(Nc3ccc(OCCCCn4ccnc4[N+](=O)[O-])cc3)n2)c2ccccc21`, the concentration for half-maximal inhibition (IC50) in [1] worked out at 1180 nM.
Take `Cn1cc(-c2ccnc(Nc3ccc(OCCOCCn4ccnc4[N+](=O)[O-])c(F)c3)n2)c2ccccc21`: the Ratio IC50 in [9] was above 13.8. In addition, the IC50 in assay [7] was above 10000 nM; in assay [1], 722 nM.
With `Cn1cc(-c2ccnc(Nc3cccc(C(=O)NCCOCCn4ccnc4[N+](=O)[O-])c3)n2)c2ccccc21`, the 50% inhibitory concentration (IC50) in assay [1] was 818 nM.
Consider `Cn1cc(-c2ccnc(Nc3ccc(OCCCCn4cnc([N+](=O)[O-])c4)c(F)c3)n2)c2ccccc21`, for which the IC50 in assay [1] worked out at 829 nM.
The same measure, in the same setting: under `Cn1cc(-c2ccnc(Nc3ccc(Cl)c(OCCOCCn4ccnc4[N+](=O)[O-])c3)n2)c2ccccc21` stands 2670 nM.
Turning to `C=CC(=O)Nc1cc(Nc2nccc(-c3cn(C)c4ccccc34)n2)c(OC)cc1N(C)CCN(C)C` [OSIMERTINIB], the IC50 came to […] with NCI-H1975 [2], […] in the assay on NCI-H1975 [3], 32.3 nM in the assay with HCC827 [5] and 33.7 nM in the assay with HCC827 [6].
Turning to `Cn1cc(-c2ccnc(Nc3cccc(OCCCCn4ccnc4[N+](=O)[O-])c3)n2)c2ccccc21`, in assay [9], the Ratio IC50 was determined as 15.7. In addition, the IC50 was 3570 nM in assay [7] and 227 nM in assay [1].
The matching figures for `Cc1cc(Nc2nccc(-c3cn(C)c4ccccc34)n2)ccc1OCCOCCn1ccnc1[N+](=O)[O-]`: 20.2, 9200 nM and 456 nM.
In the case of `Cn1cc(-c2ccnc(Nc3cccc(COCCOCCn4ccnc4[N+](=O)[O-])c3)n2)c2ccccc21`, the IC50 in assay [1] worked out at 4030 nM.
In the case of `Cn1cc(-c2ccnc(Nc3cccc(OCCCCn4cnc([N+](=O)[O-])c4)c3)n2)c2ccccc21`, the Ratio IC50 in [9] turned out to be 8.08. In addition, the half-inhibitory concentration (IC50) in [7] was 1880 nM; in [1] it was 233 nM.

By IC50 is commonly meant the midpoint of a concentration-inhibition curve.

Values taken from ChEMBL document CHEMBL5325467, “Discovery of novel hypoxia-activated, nitroimidazole constructed multi-target kinase inhibitors on the basis of AZD9291 for the treatment of human lung cancer” (Bioorg Med Chem, 2023).
